Values after ≈ are worked out from the molar mass of the structure shown. Read-outs that look alike come from different tables or passages of the source.
Tests used:
PAMPA permeability = format: in vitro ADME; settings: for Papp: PAMPA
Caco-2 permeability = format: in vitro ADME; settings: human; for Papp A→B: AtoB; for Papp B→A: BtoA
From the text: Several model systems are available, employing monolayers of various cell types, for evaluation of active transport of pharmaceutically active substances. For example, monolayers of Caco-2 intestinal epithelial cells can be used to evaluate active transport of substances between the intestine and the bloodstream. When plated on a surface which allows the flow of material from apical to basolateral and vice versa, such cells form a biological membrane which can be used to simulate physiological absorption and bio-availability. In another example, mouse brain capillary endothelial cell (MBEC) lines have been established to evaluate active transport in and out of the central nervous system. Another example of such cells is HT29 human colon carcinoma cells. Further, monolayers expressing particular transporter proteins can be established using transfected cells. For example, Sasaki et al (2002) J. Biol. Chem. 8:6497 used a double-transfected Madin-Darby canine kidney cell monolayer to study transport of organic anions.

Non-specific binding = format: in vitro ADME
PDE-3 = experiment: Phosphodiesterase inhibition PDE-3; format: biochemical
Description: (§1) Phosphodiesterase inhibition was determined by methods known to one of skill in the art.

PDE-1 = experiment: Phosphodiesterase inhibition PDE-1; format: biochemical
Description: as §1

Cytotoxicity GC50 = format: cell-based
PDE-6 = experiment: Phosphodiesterase inhibition PDE-6; format: biochemical
Description: as §1

Protein binding = format: in vitro ADME; settings: human, human serum components
Description: In general, protein binding is assessed by measuring the capacity of molecules of the invention to bind to one or more human serum components or mimics thereof. In one embodiment, suitable functional residues may be identified by screening of surfaces comprising such residues for their ability to resist adsorption of serum components, including, but not limited to serum proteins, and preferably human serum proteins. Candidate residues can be screened directly by attaching them to a solid support and testing the support for protein resistance. Alternatively, candidate residues are incorporated into, or linked to molecules of pharmaceutical interest. Such compounds may be synthesized on a solid support, or bound to a solid support after synthesis. In a non-limiting example of a direct binding assay, immobilized candidate functional residues or molecules incorporating such residues are tested for their ability to bind serum components. The serum components can be labeled with a signaling moiety for detection, or a labeled secondary reagent that binds to such serum components can be used.

Solubility = format: physicochemical
PDE5 [1] = molecular target: T1, PDE5 (Homo sapiens, UniProt O76074); experiment: Phosphodiesterase inhibition IC50 (Table 1); format: biochemical; settings: PDE5 inhibitor scaffold Compound B
Description: as §1

PDE5 [2] = molecular target: T1, PDE5; experiment: Phosphodiesterase inhibition PDE-5 human; format: biochemical
Description: as §1

Cytotoxicity LC50 = format: cell-based; settings: Chronic; read-out: Cytotox LC50 Chronic
[3] = pH 2.7, aqueous buffer, pH 2.7, read-out: Solubility pH 2.7
[4] = pH 7.4, aqueous buffer, pH 7.4, read-out: Solubility pH 7.4

Row | SMILES | Papp (PAMPA permeability; Hex, read-out: PAMPA Hex) | Papp (PAMPA permeability; Lec, read-out: PAMPA Lec) | Papp A→B (Caco-2 permeability) | Papp B→A (Caco-2 permeability) | Non-Spec Binding (Non-specific binding) | IC50 (PDE-3) | IC50 (PDE-1) | Cytotox GC50 (Cytotoxicity GC50) | IC50 (PDE-6) | fraction unbound (Protein binding) | solubility (Solubility; [3]) | solubility (Solubility; [4]) | IC50 (PDE5 [1]) | IC50 (PDE5 [2]) | CC50 (Cytotoxicity LC50) | PAMPA Hex (PAMPA permeability; Hex) | Solubility pH 2.7 (Solubility; pH 2.7) | Solubility pH 7.4 (Solubility; pH 7.4)
1 | CCCc1nc(C)c2c(=O)[nH]c(-c3cc(S(=O)(=O)N(C)CC(=O)N(C)C)ccc3OCC)nn12 [Compound 1] | 5.49 ×10⁻⁶ cm/s | 0.128 ×10⁻⁶ cm/s | 17.5 ×10⁻⁶ cm/s | 48.9 ×10⁻⁶ cm/s | 11.07% | 0.986 µM | 0.025 µM | 76.7 µM | 0.0035 µM | 0.086 | > 100 µg/mL | 96.1 µg/mL (≈ 196 µM) |  |  |  |  |  | 
2 | CCCc1nc(C)c2c(=O)[nH]c(-c3cc(S(=O)(=O)N(C)[C@H](C)C(=O)N(C)C)ccc3OCC)nn12 [Compound 2] | 18.2 ×10⁻⁶ cm/s |  | 33.3 ×10⁻⁶ cm/s | 61.3 ×10⁻⁶ cm/s | 20.7% |  |  | 94.6 µM |  | 0.032 | > 100 µg/mL | > 100 µg/mL |  |  |  |  |  | 
3 | CCCc1nc(C)c2c(=O)[nH]c(-c3cc(S(=O)(=O)N(C)CC(=O)N(C)CC(=O)N(C)C)ccc3OCC)nn12 [Compound 4] | 0.47 ×10⁻⁶ cm/s | 0.056 ×10⁻⁶ cm/s | 2.97 ×10⁻⁶ cm/s | 25.9 ×10⁻⁶ cm/s | 7% |  |  |  |  | 0.18 | 112 µg/mL (≈ 199 µM) | 109 µg/mL (≈ 194 µM) |  |  |  |  |  | 
4 | CCCc1nc(C)c2c(=O)[nH]c(-c3cc(S(=O)(=O)N4CCCC4C(=O)N(C)C)ccc3OCC)nn12 (stereo not shown) [Compound 5] | 13.2 ×10⁻⁶ cm/s |  | 19.4 ×10⁻⁶ cm/s | 60.2 ×10⁻⁶ cm/s |  |  |  |  |  |  | 100 µg/mL (≈ 194 µM) | 93 µg/mL (≈ 180 µM) |  |  |  |  |  | 
5 | CCCc1nc(C)c2c(=O)[nH]c(-c3cc(S(=O)(=O)N(C)CC(=O)N4CCOCC4)ccc3OCC)nn12 [Compound 6] | 0.78 ×10⁻⁶ cm/s |  | 11.2 ×10⁻⁶ cm/s | 55.1 ×10⁻⁶ cm/s | 7.3% |  |  |  |  | 0.084 | > 100 µg/mL | > 100 µg/mL |  |  |  |  |  | 
6 | CCCc1nc(C)c2c(=O)[nH]c(-c3cc(S(=O)(=O)N(C)CC(=O)N4CCN(C)CC4)ccc3OCC)nn12 [Compound 7] | 0.18 ×10⁻⁶ cm/s |  | 4.35 ×10⁻⁶ cm/s | 35.6 ×10⁻⁶ cm/s | 2.6% |  |  |  |  | 0.155 | > 100 µg/mL | > 100 µg/mL |  |  |  |  |  | 
7 | CCCc1nc(C)c2c(=O)[nH]c(-c3cc(S(=O)(=O)N(C)CC(=O)N(CC)CC)ccc3OCC)nn12 [Compound 8] | 21.8 ×10⁻⁶ cm/s |  | 42 ×10⁻⁶ cm/s | 77.4 ×10⁻⁶ cm/s | 19% |  |  |  |  | 0.024 | > 100 µg/mL | > 100 µg/mL |  |  |  |  |  | 
8 | CCCc1nc(C)c2c(=O)[nH]c(-c3cc(S(=O)(=O)N(C)CC(=O)N(C)CCN(C)C)ccc3OCC)nn12 [Compound 9] | 0.03 ×10⁻⁶ cm/s |  | 2.33 ×10⁻⁶ cm/s | 11.3 ×10⁻⁶ cm/s | 9.8% |  |  |  |  | 0.246 | > 100 µg/mL | > 100 µg/mL |  |  |  |  |  | 
9 | CCCc1nc(C)c2c(=O)[nH]c(-c3cc(S(=O)(=O)N(CC)CC(=O)N(CC)CC)ccc3OCC)nn12 [Compound 10] | 67 ×10⁻⁶ cm/s |  |  |  |  |  |  |  |  |  | 77.9 µg/mL (≈ 146 µM) | 78.5 µg/mL (≈ 147 µM) |  |  |  |  |  | 
10 | CCCc1nc(C)c2c(=O)[nH]c(-c3cc(S(=O)(=O)N(C)CC(=O)N(C)CCOC)ccc3OCC)nn12 [Compound 11] | 1.45 ×10⁻⁶ cm/s |  | 11.4 ×10⁻⁶ cm/s | 63.3 ×10⁻⁶ cm/s | 0% |  |  |  |  | 0.042 | 66.7 µg/mL (≈ 125 µM) | 70.9 µg/mL (≈ 133 µM) | 0.00015 µM | 0.00015 µM |  |  |  | 
11 | CCCc1nc(C)c2c(=O)[nH]c(-c3cc(S(=O)(=O)N(C)[C@@H](C)C(=O)N(C)C)ccc3OCC)nn12 [Compound 12] | 13.9 ×10⁻⁶ cm/s |  | 33.4 ×10⁻⁶ cm/s | 50.4 ×10⁻⁶ cm/s | 30.7% |  |  | 99.3 µM |  | 0.058 | 96 µg/mL (≈ 190 µM) | 100 µg/mL (≈ 198 µM) |  |  |  |  |  | 
12 | CCCc1nc(C)c2c(=O)[nH]c(-c3cc(S(=O)(=O)N(C)[C@@H](C)C(=O)NC)ccc3OCC)nn12 [Compound 13] | 0.42 ×10⁻⁶ cm/s |  |  |  |  |  |  | 94.0 µM |  |  | 69.4 µg/mL (≈ 141 µM) | 74.6 µg/mL (≈ 152 µM) |  |  | 100 µM |  |  | 
13 | CCCc1nc(C)c2c(=O)[nH]c(-c3cc(S(=O)(=O)N(C)[C@H](C)C(=O)NC)ccc3OCC)nn12 [Compound 14] | 0.47 ×10⁻⁶ cm/s |  |  |  |  |  |  | 88.0 µM |  |  | 62.6 µg/mL (≈ 128 µM) | 64 µg/mL (≈ 130 µM) |  |  | 100 µM |  |  | 
14 | CCCc1nc(C)c2c(=O)[nH]c(-c3cc(S(=O)(=O)N(C)C(C)(C)C(=O)NC)ccc3OCC)nn12 [Compound 15] | 0.25 ×10⁻⁶ cm/s |  | 6.8 ×10⁻⁶ cm/s | 34.9 ×10⁻⁶ cm/s |  |  |  | 95.0 µM |  |  |  |  |  |  | 100 µM |  |  | 
15 | CCCc1nc(C)c2c(=O)[nH]c(-c3cc(S(=O)(=O)N(C)C4(C(=O)N(C)C)CC4)ccc3OCC)nn12 [Compound 16] | 3.41 ×10⁻⁶ cm/s |  |  |  |  |  |  | 100 µM |  |  | 74.7 µg/mL (≈ 145 µM) | 82.5 µg/mL (≈ 160 µM) |  |  | 100 µM |  |  | 
16 | CCCc1nc(C)c2c(=O)[nH]c(-c3cc(S(=O)(=O)NC(C)C(=O)N(C)C)ccc3OCC)nn12 (stereo not shown) [Compound 17] | 0.26 ×10⁻⁶ cm/s |  |  |  |  |  |  | 100 µM |  |  | 70 µg/mL (≈ 143 µM) | 78.4 µg/mL (≈ 160 µM) | 0.00066 µM | 0.00066 µM | 100 µM |  |  | 
17 | CCCc1nc(C)c2c(=O)[nH]c(-c3cc(S(=O)(=O)NC(C)C(=O)N(C)C)ccc3OCC)nn12 (stereo not shown) [Compound 18] |  |  |  |  |  |  |  | 100 µM |  |  |  |  | 0.00036 µM | 0.00036 µM | 100 µM | 0.18 10^−6 cm/s | 70.3 ug/mL | 75.75 ug/mL
18 | CCCc1nc(C)c2c(=O)[nH]c(-c3cc(S(=O)(=O)NC(C)(C)C(=O)N(C)C)ccc3OCC)nn12 [Compound 19] | 0.17 ×10⁻⁶ cm/s |  | 2.43 ×10⁻⁶ cm/s | 33 ×10⁻⁶ cm/s |  |  |  | 100 µM |  |  | > 100 µg/mL | 7.1 µg/mL (≈ 14.1 µM) |  |  | 100 µM |  |  | 
19 | CCCc1nc(C)c2c(=O)[nH]c(-c3cc(S(=O)(=O)N(C)CC(=O)NC)ccc3OCC)nn12 [Compound 21] | 0.24 ×10⁻⁶ cm/s |  | 5.15 ×10⁻⁶ cm/s | 31.4 ×10⁻⁶ cm/s |  |  |  |  |  |  | > 100 µg/mL | > 100 µg/mL |  |  |  |  |  | 

Source: US20110172422A1, “Methods of Making Pharmacokinetically Improved Compounds Comprising Functional Residues or Groups and Pharmaceutical Compositions Comprising Said Compounds” (SURFACE LOGIX, INC., priority 2005, published 2011)
